Target: T1, Signal transducer and activator of transcription 1-alpha/beta (Homo sapiens, UniProt P42224)
T1 sequence (P42224 whole entry): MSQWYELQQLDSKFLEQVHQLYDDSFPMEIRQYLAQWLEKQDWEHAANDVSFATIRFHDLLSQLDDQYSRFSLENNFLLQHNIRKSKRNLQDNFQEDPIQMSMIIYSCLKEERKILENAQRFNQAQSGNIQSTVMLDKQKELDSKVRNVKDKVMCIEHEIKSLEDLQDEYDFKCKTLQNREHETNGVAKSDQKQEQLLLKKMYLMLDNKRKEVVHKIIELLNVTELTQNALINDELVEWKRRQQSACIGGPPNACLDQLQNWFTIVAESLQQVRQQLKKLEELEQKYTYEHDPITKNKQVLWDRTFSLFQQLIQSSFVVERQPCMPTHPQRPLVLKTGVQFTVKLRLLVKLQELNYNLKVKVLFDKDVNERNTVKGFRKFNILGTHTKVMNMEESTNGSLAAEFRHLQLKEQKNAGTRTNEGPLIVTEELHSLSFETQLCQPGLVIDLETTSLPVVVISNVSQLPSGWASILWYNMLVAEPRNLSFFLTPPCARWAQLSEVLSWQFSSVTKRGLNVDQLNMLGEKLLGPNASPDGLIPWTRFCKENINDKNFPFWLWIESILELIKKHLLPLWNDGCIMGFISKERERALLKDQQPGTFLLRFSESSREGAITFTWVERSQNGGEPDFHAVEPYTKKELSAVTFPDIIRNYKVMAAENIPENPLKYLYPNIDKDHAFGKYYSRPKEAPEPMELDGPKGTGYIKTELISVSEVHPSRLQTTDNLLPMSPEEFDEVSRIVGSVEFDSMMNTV
Assay: Bioassay Evaluation: Compound samples (in 3-5 mg quantities) were evaluated in a variety of assays. All compound submissions were fully characterized (1H, 13C, IR, HRMS), satisfied purity criteria (≥95% LC/MC, ELS).
Assay type: single protein

Work on `COc1ccc(C2=Nn3c(nnc3-c3[nH]nc4c3CCC4)SC2)cc1` yielded an IC50 of 40.6 µM.
